# According to patent publication US9817000B2, “Method for identifying compounds that modulate a T2R taste receptor” (The Regents of the University of California, priority 1999, dated 2017):
# Assays:
# mT2R5 = target: T1, mT2R5 (Mus musculus, UniProt Q9JKT4); assay: FURA-2 [Ca2+]i imaging in HEK-293 cells expressing Gα15 and rho-mT2R5 (taster, DBA/2 allele); assay type: cell-based; settings: for [Ca2+]i response (FURA-2): 1.5 μM cycloheximide
# T1 construct: expressed in transfected cells; host or cells: modified HEK-293 cells (PEAKrapid) expressing Gα15; pEAK10 vector
# T1 sequence (Q9JKT4 1-300): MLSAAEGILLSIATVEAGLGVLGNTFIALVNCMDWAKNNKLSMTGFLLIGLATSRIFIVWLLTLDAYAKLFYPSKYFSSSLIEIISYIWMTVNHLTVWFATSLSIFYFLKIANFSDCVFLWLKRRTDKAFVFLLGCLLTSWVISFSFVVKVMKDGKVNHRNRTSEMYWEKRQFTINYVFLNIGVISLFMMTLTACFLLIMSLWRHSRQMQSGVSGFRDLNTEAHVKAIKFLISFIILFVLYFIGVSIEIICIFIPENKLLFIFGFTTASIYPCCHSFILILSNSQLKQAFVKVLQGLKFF
# From the text: In this system, receptor activation leads to increases in intracellular calcium [Ca2+]i, which can be monitored at the single cell level using the FURA-2 calcium-indicator dye (Tsien et al., Cell Calcium 6:145-157 (1985)). To test and optimize Gα15 coupling, two different GPCRs, a Gαi-coupled μ-opioid receptor (Reisine, Neuropharm. 34:463-472 (1995)) and a Gαq-coupled mGluR1 receptor (Masu et al., Nature 349:760-765 (1991)), were used. Transfection of these receptors into HEK-293 cell produced robust, agonist-selective, and Gα15-dependent Ca^2+ responses (FIG. 1).
# A number of studies have shown that many GPCRs, in particular sensory receptors, require specific “chaperones” for maturation and targeting through the secretory pathway (Baker et al., Embo J 13:4886-4895 (1994); Dwyer et al., Cell 93:455-466 (1998)). Recently, Krautwurst et al. (Cell 95:917-926 (1998)) generated chimeric receptors consisting of the first 20 amino acids of rhodopsin and various rodent olfactory receptors. These were targeted to the plasma membrane and functioned as odorant receptors in HEK-293 cells. To determine whether rhodopsin sequences can also help target T2Rs to the plasma membra, rhodopsin-T2R chimeras (rho-T2Rs) were constructed. […] Similar results were obtained with 11 human and 16 rodent T2Rs (see below). To further enhance the level of T2R expression, rho-T2Rs were placed under the control of a strong EF-1α promoter, and introduced as episomal plasmids into modified HEK-293 cells expressing Gα15 (pEAKrapid cells).
# A bridge overlap PCR extension technique was used to generate rho-T2R chimeras, which contain the first 39 amino acids of bovine rhodopsin in frame with human and rodent T2R coding sequences (Mehta and Singh, Biotechniques 26:1082-1086 (1999). All receptors were cloned into a pEAK10 mammalian expression vector (Edge Biosystems, MD). Modified HEK-293 cells (PEAK^rapid cells; Edge BioSystems, MD) were grown and maintained at 37° C. in UltraCulture medium (Bio Whittaker) supplemented with 5% fetal bovine serum, 100 μg/ml Gentamycin sulphate (Fisher), 1 μg/ml Amphotericin B and 2 mM GlutaMax I (Lifetechnologies). For transfection, cells were seeded onto matrigel coated 24-well culture plates or 35 mm recording chambers. After 24 h at 37° C., cells were washed in OptiMEM medium (Lifetechnologies) and transfected using LipofectAMINE reagent (Lifetechnologies). Transfection efficiencies were estimated by co-transfection of a GFP reporter plasmid, and were typically >70%. Immunofluoresence staining, and activity assays were performed 36-48 h after transfection.
# Transfected cells were washed once in Hank's balanced salt solution with 1 mM sodium pyruvate and 10 mM HEPES, pH 7.4 (assay buffer), and loaded with 2 μM FURA-2 AM (Molecular Probes) for 1 h at room temperature. The loading solution was removed and cells were incubated in 200 μl of assay buffer for 1 h to allow the cleavage of the AM ester. For most experiments, 24-well tissue culture plates containing cells expressing a single rho-T2R were stimulated with 200 μl of a 2× tastant solution (see next section). [Ca^2+]i changes were monitored using a Nikon Diaphot 200 microscope equipped with a 10×/0.5 fluor objective with the TILL imaging system (T.I.L.L Photonics GmbH). Acquisition and analysis of the fluorescence images used TILL-Vision software. Generally, [Ca^2+]i was measured for 80-120 s by sequentially illuminating cells for 200 ms at 340 nm and 380 nm and monitoring the fluorescence emission at 510 nm using a cooled CCD camera. The F340/F380 ratio was analyzed to measure [Ca^2+]i.
# Kinetics of activation and deactivation were measured using a bath perfusion system. Cells were seeded onto a 150 μl microperfusion chamber, and test solutions were pressure-ejected with a picospritzer apparatus (General Valve, Inc.). Flow-rate was adjusted to ensure complete exchange of the bath solution within 4-5 s. […]
# [1] = target: T2, mT2R5 coupling to gustducin (Mus musculus, UniProt Q9JKT4); assay: Tastant-induced GTPγS binding to gustducin with insect cell membranes containing rho-mT2R5; assay type: biochemical
# T2 construct: infectious Bacmid containing rhodopsin tagged mT2R5 (DBA/2-allele) was produced using the Bac-to-Bac system; rhodopsin tag (rho); made in house; host or cells: insect larval cells infected with recombinant Bacmid (Bac-to-Bac baculovirus system); membrane preparation
# T2 sequence (Q9JKT4 1-300): T1 sequence (Q9JKT4 1-300)
# Experimental: To investigate the selectivity of T2R-G-protein coupling, mT2R5 was chosen for study because its activation by cycloheximide recapitulates mouse taste responses. Rho-tagged mT2R5 and gustducin were prepared using a baculovirus expression system. mT2R5-containing membranes were incubated with various purified G-proteins, including gustducin, and measured tastant-induced GTP-γS binding (Hoon et al., Biochem J 309:629-636 (1995)). Specifically, infectious Bacmid containing rhodopsin tagged mT2R5 (DBA/2-allele) was produced using the Bac-to-Bac system (Lifetechnologies, MD). Insect larval cells were infected for 60 h with recombinant Bacmid and membranes were prepared as described previously (Ryba and Tirindelli, J Biol Chem, 270:6757-6767 (1995)). Peripheral proteins were removed by treatment with 8 M urea and membranes were resuspended in 10 mM HEPES pH7.5, 1 mM EDTA and 1 mM DTT. The expression of rho-mT2R5 was assessed by Western blot using mAb B6-30 and quantitated by comparison with known amounts of rhodopsin. Approximately 300 pmol of rho-mT2R5 could be obtained from 2×10^8 infected cells. Gustducin and Gβ1γ8 heterodimers were isolated as described previously (Hoon et al., Biochem J 309:629-636 (1995); Ryba and Tirindelli, J Biol Chem, 270:6757-6767 (1995)). Receptor-catalyzed exchange of GDP for GTPγS on gustducin and other G-protein α-subunits was measured in the presence of 10 nM rho-mT2R5, 100 μM GDP, and 20 μM Gβ1γ8. All measurements were made at 15-minute time points, and reflect the initial rate of GTPγS binding.
structure (smiles),measurement,setting,value
C[C@@H]1C[C@@H]([C@H](O)CC2CC(=O)NC(=O)C2)C(=O)[C@@H](C)C1 [cycloheximide],EC50,mT2R5,0.5 µM
same,response of cells expressing mT2R5,mT2R5,specifically responded
same,response to successive applications,mT2R5,significantly reduced responses
same,threshold of response,mT2R5,~0.2 µM
same,[Ca2+]i response (FURA-2),mT2R5; absence of Gα15,No increase in [Ca2+]i
same,[Ca2+]i response (FURA-2),mT2R5; with Gα15,robust Gα15 dependent responses
same,specificity of [Ca2+]i response,mT2R5; 5 μM,highly specific
same,[Ca2+]i changes in cells lacking receptor or Gα15,mT2R5; 5000-fold higher concentration,did not trigger [Ca2+]i changes
same,cells responding,mT2R5; entire camera field,> 70%
same,response to prolonged exposure,mT2R5; exposure >10 s,adaptation
same,response under superfusion,mT2R5; micromolar concentrations,robust transient responses
same,latency of response,mT2R5; microperfusion chamber,< 1 s
same,receptor activation by tastant pulses,mT2R5; multiple pulses of 2 μM,robust receptor activation
same,Kd,[1],14.8 µM
same,coupling of mT2R5 to gustducin,[1],exquisite cycloheximide-dependent coupling
same,gustducin activation,[1]; 300 μM,activate gustducin
CC[N+](CC)(CC(=O)Nc1c(C)cccc1C)Cc1ccccc1 [denatonium],[Ca2+]i response to tastant,mT2R5; 5 mM,not observed
same,gustducin activation,[1]; 1 mM,not
